According to the supplement of paper PMC12463676, “Small-molecule dissolution of stress granules by redox modulation benefits ALS models” (Nature Chemical Biology, 2025):

Experiments:
potassium arsenate = compound: O=[As]([O-])(O)O.[K+] [potassium arsenate]; experiment: thermal stability z-score vs DMSO; higher = more thermally stabilized by treatment; conditions: HeLa; arsenate concentration 1 mM
Experimental: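 Cellular thermal proteome profiling in HeLa cells treated with 1 mM arsenate for 1 h (DMSO pretreatment), heated to ten temperatures (37-66.3 °C). Soluble protein was quantified by TMT mass spectrometry relative to DMSO controls; the thermal stability score was transformed to a z-score; mean of n = 3 experiments.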

lipoamide = compound: NC(=O)CCCCC1CCSS1 [lipoamide]; experiment: as above; conditions: HeLa, lipoamide concentration 100 µM
Experimental: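 Cellular thermal proteome profiling in HeLa cells. Cells were treated with 100 µM lipoamide for 1 h, with or without 1 mM arsenate for a further 1 h, then heated to ten temperatures (37-66.3 °C), and soluble protein was quantified by TMT mass spectrometry relative to 0.1% DMSO controls. The thermal stability score (sum of log2 fold changes minus the abundance score) was transformed to a z-score; mean of n = 3 experiments.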

[1] = arsenate co-treatment: 1 mM arsenate 1 h
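Also: each temperature applied for 3 min, abundance score taken as mean log2 fold change at the two lowest temperatures, z-score obtained by mean subtraction and division by SD.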

Chain of UniProt Q7L2J0 (Q7L2J0 whole entry): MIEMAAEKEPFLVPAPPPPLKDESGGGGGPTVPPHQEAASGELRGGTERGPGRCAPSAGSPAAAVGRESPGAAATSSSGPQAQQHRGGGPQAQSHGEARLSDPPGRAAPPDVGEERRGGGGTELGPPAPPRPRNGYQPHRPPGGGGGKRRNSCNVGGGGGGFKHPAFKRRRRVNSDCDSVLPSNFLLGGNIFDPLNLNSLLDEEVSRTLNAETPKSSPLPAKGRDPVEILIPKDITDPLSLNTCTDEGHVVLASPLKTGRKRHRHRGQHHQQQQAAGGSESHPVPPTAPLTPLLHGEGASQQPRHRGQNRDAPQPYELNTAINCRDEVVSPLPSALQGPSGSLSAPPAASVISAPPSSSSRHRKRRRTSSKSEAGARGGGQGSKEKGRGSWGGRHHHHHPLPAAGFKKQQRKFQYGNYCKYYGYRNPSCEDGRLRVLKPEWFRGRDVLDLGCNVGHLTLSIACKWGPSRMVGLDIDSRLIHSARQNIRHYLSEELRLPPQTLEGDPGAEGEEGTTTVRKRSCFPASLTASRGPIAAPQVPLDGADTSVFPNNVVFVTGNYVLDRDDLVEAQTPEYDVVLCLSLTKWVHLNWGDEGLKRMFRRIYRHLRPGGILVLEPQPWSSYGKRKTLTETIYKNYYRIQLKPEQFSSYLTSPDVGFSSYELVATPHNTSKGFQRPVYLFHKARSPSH
Chain of UniProt Q96IZ6 (Q96IZ6 whole entry): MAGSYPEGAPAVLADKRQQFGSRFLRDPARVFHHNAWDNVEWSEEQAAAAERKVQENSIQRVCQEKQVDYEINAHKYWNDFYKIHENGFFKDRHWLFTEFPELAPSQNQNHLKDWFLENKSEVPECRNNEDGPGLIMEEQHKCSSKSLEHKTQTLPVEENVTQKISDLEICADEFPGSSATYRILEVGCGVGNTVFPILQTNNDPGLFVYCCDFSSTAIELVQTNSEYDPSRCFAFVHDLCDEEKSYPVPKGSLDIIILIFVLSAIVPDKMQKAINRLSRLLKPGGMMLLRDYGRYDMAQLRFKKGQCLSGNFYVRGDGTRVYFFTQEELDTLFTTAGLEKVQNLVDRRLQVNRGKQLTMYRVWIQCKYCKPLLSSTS
Chain of UniProt Q9H944 (Q9H944 whole entry): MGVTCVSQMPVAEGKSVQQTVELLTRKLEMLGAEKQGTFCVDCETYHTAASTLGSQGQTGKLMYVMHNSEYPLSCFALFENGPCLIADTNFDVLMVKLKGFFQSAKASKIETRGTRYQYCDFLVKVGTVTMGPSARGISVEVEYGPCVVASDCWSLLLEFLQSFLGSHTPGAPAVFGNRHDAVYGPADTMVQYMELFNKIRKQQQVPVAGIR
Chain of UniProt Q14680 (Q14680 whole entry, looked up): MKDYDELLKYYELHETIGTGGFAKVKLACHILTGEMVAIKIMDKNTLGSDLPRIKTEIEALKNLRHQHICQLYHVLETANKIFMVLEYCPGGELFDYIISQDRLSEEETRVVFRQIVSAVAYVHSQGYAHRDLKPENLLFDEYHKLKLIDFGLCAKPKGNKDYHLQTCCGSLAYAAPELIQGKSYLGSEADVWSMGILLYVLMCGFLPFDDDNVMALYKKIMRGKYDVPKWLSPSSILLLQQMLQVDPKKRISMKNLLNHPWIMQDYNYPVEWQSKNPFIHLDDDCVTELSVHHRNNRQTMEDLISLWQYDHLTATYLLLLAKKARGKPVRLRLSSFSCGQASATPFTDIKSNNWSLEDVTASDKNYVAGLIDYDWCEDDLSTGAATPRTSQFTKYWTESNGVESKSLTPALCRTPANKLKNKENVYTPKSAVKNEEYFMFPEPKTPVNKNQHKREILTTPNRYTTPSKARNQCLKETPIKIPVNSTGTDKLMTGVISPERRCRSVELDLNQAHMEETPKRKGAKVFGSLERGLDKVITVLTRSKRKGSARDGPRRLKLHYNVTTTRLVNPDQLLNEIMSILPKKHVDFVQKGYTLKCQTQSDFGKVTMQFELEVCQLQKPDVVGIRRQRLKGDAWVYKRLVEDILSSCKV
Chain of UniProt P49736 (P49736 whole entry): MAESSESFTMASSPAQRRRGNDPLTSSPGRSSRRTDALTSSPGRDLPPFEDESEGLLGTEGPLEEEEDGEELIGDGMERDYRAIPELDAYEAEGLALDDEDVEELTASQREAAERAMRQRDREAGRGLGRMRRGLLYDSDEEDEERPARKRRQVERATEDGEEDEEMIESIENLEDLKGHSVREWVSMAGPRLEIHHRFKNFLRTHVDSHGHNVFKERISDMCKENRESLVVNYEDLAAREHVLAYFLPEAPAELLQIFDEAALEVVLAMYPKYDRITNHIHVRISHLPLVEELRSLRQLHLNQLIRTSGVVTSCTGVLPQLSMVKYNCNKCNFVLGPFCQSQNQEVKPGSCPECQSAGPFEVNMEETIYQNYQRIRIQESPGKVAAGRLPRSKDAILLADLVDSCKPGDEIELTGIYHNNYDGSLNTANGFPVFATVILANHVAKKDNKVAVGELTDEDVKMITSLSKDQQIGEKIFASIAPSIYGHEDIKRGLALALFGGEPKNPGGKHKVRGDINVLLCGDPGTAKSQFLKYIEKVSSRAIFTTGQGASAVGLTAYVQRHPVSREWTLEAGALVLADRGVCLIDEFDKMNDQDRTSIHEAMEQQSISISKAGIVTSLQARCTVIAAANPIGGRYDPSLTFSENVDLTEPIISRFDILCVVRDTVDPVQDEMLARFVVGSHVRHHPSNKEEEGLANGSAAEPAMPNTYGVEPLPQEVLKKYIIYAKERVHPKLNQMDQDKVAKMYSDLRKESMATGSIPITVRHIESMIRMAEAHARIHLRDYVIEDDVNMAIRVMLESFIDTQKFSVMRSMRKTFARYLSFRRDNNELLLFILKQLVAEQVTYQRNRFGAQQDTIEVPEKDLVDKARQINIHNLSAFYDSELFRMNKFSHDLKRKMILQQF
Chain of UniProt P43121 (P43121 whole entry): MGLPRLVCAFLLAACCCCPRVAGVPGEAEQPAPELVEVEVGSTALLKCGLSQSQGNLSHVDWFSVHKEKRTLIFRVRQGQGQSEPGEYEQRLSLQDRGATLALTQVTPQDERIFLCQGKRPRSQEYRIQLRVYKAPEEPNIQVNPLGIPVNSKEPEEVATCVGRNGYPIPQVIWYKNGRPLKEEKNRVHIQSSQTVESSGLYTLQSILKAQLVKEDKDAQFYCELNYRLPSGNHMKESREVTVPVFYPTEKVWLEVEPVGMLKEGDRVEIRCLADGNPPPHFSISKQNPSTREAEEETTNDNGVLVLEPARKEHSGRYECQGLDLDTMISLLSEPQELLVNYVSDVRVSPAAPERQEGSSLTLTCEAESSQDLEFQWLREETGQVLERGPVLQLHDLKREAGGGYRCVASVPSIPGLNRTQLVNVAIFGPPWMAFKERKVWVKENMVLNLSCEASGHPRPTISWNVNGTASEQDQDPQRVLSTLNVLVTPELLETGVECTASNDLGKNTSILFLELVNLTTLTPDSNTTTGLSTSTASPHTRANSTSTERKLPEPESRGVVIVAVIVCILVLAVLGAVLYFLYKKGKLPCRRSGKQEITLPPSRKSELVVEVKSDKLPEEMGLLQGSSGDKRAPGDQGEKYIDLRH
Chain of UniProt O95243 (O95243 whole entry): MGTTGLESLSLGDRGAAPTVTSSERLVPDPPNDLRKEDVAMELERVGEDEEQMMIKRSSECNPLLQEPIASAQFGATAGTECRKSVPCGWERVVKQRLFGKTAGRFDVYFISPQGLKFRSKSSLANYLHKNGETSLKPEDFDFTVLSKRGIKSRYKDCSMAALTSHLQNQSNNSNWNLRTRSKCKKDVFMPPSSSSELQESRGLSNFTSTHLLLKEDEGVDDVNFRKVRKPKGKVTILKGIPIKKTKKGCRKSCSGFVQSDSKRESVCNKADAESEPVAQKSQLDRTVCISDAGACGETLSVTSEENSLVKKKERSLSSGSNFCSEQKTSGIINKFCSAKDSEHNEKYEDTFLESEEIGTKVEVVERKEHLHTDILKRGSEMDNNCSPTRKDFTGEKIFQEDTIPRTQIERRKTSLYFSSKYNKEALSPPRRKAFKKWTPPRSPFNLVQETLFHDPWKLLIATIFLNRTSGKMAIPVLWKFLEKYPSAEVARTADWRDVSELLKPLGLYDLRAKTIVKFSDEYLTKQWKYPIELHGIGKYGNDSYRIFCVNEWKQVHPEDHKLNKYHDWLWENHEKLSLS
Chain of UniProt Q16798 (Q16798 whole entry): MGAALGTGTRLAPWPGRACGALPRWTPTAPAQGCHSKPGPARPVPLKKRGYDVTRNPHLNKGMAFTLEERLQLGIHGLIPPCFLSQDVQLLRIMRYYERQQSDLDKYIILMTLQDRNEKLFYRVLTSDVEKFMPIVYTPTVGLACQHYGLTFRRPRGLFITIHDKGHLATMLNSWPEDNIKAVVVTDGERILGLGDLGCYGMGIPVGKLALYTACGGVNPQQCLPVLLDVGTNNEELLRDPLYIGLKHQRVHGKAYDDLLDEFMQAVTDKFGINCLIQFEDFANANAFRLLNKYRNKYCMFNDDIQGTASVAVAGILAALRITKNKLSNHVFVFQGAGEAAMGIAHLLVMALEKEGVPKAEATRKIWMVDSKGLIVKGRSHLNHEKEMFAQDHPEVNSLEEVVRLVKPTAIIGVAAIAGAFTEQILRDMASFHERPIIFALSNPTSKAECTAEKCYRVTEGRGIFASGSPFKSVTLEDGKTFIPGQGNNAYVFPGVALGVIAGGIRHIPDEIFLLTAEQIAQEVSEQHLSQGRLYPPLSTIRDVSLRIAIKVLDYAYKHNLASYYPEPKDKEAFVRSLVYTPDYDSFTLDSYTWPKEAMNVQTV
Chain of UniProt P40926 (P40926 whole entry): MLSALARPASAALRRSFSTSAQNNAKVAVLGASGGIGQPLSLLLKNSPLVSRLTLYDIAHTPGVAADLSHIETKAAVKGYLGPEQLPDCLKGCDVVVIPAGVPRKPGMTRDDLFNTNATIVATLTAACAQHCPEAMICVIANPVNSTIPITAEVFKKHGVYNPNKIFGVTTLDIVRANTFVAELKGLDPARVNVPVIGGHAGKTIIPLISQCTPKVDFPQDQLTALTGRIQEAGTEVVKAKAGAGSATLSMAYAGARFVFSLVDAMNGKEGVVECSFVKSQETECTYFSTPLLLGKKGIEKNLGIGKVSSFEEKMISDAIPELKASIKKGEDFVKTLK

| Target | thermal stability z-score (potassium arsenate) | thermal stability z-score (lipoamide; [1]) | thermal stability z-score (lipoamide; arsenate co-treatment: none) |
| --- | --- | --- | --- |
| MAT2A (UniProt P31153) | 0.337 | -0.418 | -0.422 |
| MAT2B (UniProt Q9NZL9) | -0.705 | -0.368 | -0.144 |
| MATK (UniProt P42679) | -0.0451 | -0.101 | -0.0941 |
| MATR3 (UniProt P43243) | -1.69 | 2.1 | 0.607 |
| MAVS (UniProt Q7Z434) | -0.963 | 0.0772 | 0.294 |
| MAX (UniProt P61244) | 2.9 | 2.75 | 2.05 |
| MB21D1 (UniProt Q8N884) | 0.109 | 0.409 | 0.258 |
| MB21D2 (UniProt Q8IYB1) | 0.483 | 0.116 | -0.198 |
| MBD2 (UniProt Q9UBB5) | -0.294 | 0.0418 | 0.0688 |
| MBD3 (UniProt O95983) | -0.483 | 0.379 | 0.252 |
| MBD4 (UniProt O95243) | -0.571 | -0.0777 | 0.0091 |
| MBLAC2 (UniProt Q68D91) | 0.708 | -0.0603 | 0.367 |
| MBNL1 (UniProt Q9NR56) | -0.983 | -0.368 | -0.277 |
| MBOAT7 (UniProt Q96N66) | -0.732 | -0.956 | -0.883 |
| MBP (UniProt P02686) | 0.222 | 1.96 | 0.197 |
| MBTPS1 (UniProt Q14703) | -0.822 | -0.923 | -0.876 |
| MCAM (UniProt P43121) | 0.512 | 0.197 | -0.281 |
| MCAT (UniProt Q8IVS2) | 1.17 | 0.313 | 0.162 |
| MCC (UniProt P23508) | -0.0394 | -0.1 | -0.0517 |
| MCCC1 (UniProt Q96RQ3) | -0.585 | -0.187 | -0.191 |
| MCCC2 (UniProt Q9HCC0) | -0.197 | 0.322 | 0.156 |
| MCFD2 (UniProt Q8NI22) | -0.565 | -0.221 | -0.109 |
| MCL1 (UniProt Q07820) | 1.27 | 0.483 | 0.838 |
| MCM2 (UniProt P49736) | -0.389 | -0.75 | -0.391 |

| Target | thermal stability z-score (potassium arsenate) | thermal stability z-score (lipoamide; [1]) | thermal stability z-score (lipoamide; arsenate co-treatment: none) |
| --- | --- | --- | --- |
| MCM3 (UniProt P25205) | 2.44 | -0.878 | 0.412 |
| MCM4 (UniProt P33991) | -0.472 | -0.472 | -0.0478 |
| MCM5 (UniProt P33992) | 2.47 | -0.676 | -0.191 |
| MCM6 (UniProt Q14566) | -0.919 | -0.81 | -0.253 |
| MCM7 (UniProt P33993) | -0.228 | -0.43 | -0.294 |
| MCMBP (UniProt Q9BTE3) | 0.409 | -0.129 | -0.0734 |
| MCOLN1 (UniProt Q9GZU1) | -1.27 | -0.724 | -0.559 |
| MCTP2 (UniProt Q6DN12) | -0.604 | -0.192 | -0.145 |
| MCTS1 (UniProt Q9ULC4) | -1.02 | -0.523 | -0.0571 |
| MCU (UniProt Q8NE86) | 0.57 | -0.0937 | 0.21 |
| MCUR1 (UniProt Q96AQ8) | -0.0449 | 0.853 | 1.15 |
| MDC1 (UniProt Q14676) | -0.363 | 0.374 | 0.00253 |
| MDH1 (UniProt P40925) | -1.45 | 0.208 | 0.368 |
| MDH2 (UniProt P40926) | -0.963 | 0.922 | 0.615 |
| MDN1 (UniProt Q9NU22) | 0.0865 | 0.0494 | 0.0439 |
| ME1 (UniProt P48163) | -0.207 | 0.408 | 0.575 |
| ME2 (UniProt P23368) | -1.26 | 0.621 | -0.0427 |
| ME3 (UniProt Q16798) | 0.6 | 1.29 | 1.51 |
| MEA1 (UniProt Q16626) | 0.711 | 1.48 | 1.28 |
| MEAF6 (UniProt Q9HAF1) | -0.821 | 0.687 | -0.0341 |
| MECP2 (UniProt P51608) | -0.147 | -0.157 | -0.207 |
| MECR (UniProt Q9BV79) | 0.152 | 0.217 | -0.251 |
| MED1 (UniProt Q15648) | 0.125 | 0.948 | 0.662 |
| MED4 (UniProt Q9NPJ6) | -0.174 | 0.794 | 0.377 |

| Target | thermal stability z-score (potassium arsenate) | thermal stability z-score (lipoamide; [1]) | thermal stability z-score (lipoamide; arsenate co-treatment: none) |
| --- | --- | --- | --- |
| MED6 (UniProt O75586) | 0.00858 | 0.171 | 0.0477 |
| MED7 (UniProt O43513) | -0.328 | -0.0337 | -0.104 |
| MED8 (UniProt Q96G25) | 0.0962 | 0.954 | 0.843 |
| MED12 (UniProt Q93074) | 0.0377 | -0.255 | -0.248 |
| MED14 (UniProt O60244) | -0.2 | -0.0798 | -0.176 |
| MED15 (UniProt Q96RN5) | -2.01 | -0.382 | -0.574 |
| MED16 (UniProt Q9Y2X0) | -0.0825 | -0.0673 | 0.0989 |
| MED17 (UniProt Q9NVC6) | -0.697 | 0.255 | -0.466 |
| MED18 (UniProt Q9BUE0) | -0.382 | -0.0409 | 0.0953 |
| MED20 (UniProt Q9H944) | -0.226 | 0.506 | -0.154 |
| MED23 (UniProt Q9ULK4) | -0.274 | -0.0582 | -0.269 |
| MED24 (UniProt O75448) | -0.0686 | 0.0619 | -0.0126 |
| MED25 (UniProt Q71SY5) | 0.0488 | -0.264 | -0.252 |
| MED27 (UniProt Q6P2C8) | 0.0267 | -0.0367 | 0.069 |
| MEF2D (UniProt Q14814) | 0.288 | 0.00357 | 0.197 |
| MELK (UniProt Q14680) | -0.32 | -0.0697 | -0.0146 |
| MEMO1 (UniProt Q9Y316) | 0.0822 | 0.326 | 0.0877 |
| MEPCE (UniProt Q7L2J0) | 1.22 | -0.372 | 0.65 |
| MESDC2 (UniProt Q14696) | 0.346 | -1.36 | -1.28 |
| MET (UniProt P08581) | 0.073 | -0.338 | -0.235 |
| METAP1 (UniProt P53582) | 0.894 | -0.0942 | -0.673 |
| METAP2 (UniProt P50579) | 0.409 | 0.0427 | 0.326 |
| METTL1 (UniProt Q9UBP6) | 0.207 | 0.351 | 0.439 |
| METTL2A (UniProt Q96IZ6) | -0.0971 | 0.394 | 0.528 |
